The Deep4Chem optical property database
Blank lines part the entries; values can stand above or below the compound they belong to.

Assay: solvent given as SMILES

fluorescence lifetime (in CC#N): 1.22 ns
Structure (SMILES): Cc1ccc(-c2ccc(/C=C/c3ccc(N(C)C)cc3)cn2)nc1

fluorescence lifetime (in ClCCl): 1.29 ns
Structure (SMILES): C(=C\c1cc(-c2ccccc2)c(/C=C/c2ccc(N(c3ccccc3)c3ccccc3)cc2)cc1-c1ccccc1)/c1ccc(N(c2ccccc2)c2ccccc2)cc1

fluorescence lifetime (in C1CCOC1): 1.63 ns
Structure (SMILES): CCn1c2ccccc2c2cc(-c3cc(-c4ccc5c(c4)c4ccccc4n5CC)nc(-c4ccc(OC)cc4)n3)ccc21

fluorescence lifetime (in ClCCl): 1.31 ns
Structure (SMILES): COC(=O)c1cc(=O)n(C)c2cc(-c3ccccc3OC)sc12

fluorescence lifetime (in c1cc(-n2c3ccccc3c3ccccc32)cc(-n2c3ccccc3c3ccccc32)c1): 23 ns
Structure (SMILES): O=C(c1ccc(N2c3ccccc3Oc3ccccc32)cc1)c1ccc(N2c3ccccc3Oc3ccccc32)cc1

fluorescence lifetime (in ClC(Cl)Cl): 3 ns
Structure (SMILES): Cc1cc(C)c(C2=C3C=CC=[N+]3[B-]3(c4ccccc4)Oc4cc(O)cc5c6ccc(C)cc6c6cc2n3c6c45)c(C)c1 (stereo not given)

fluorescence lifetime (in Cc1ccccc1-c1cccc(Oc2cc3c4c(c2)Oc2cc(-c5ccccc5C)ccc2B4c2ccc(-c4ccccc4C)cc2O3)c1): 4.1 ns
Structure (SMILES): c1ccc(N(c2ccccc2)c2cc3c4c(c2)N(c2ccccc2)c2cc5c(cc2B4c2ccccc2N3c2ccccc2)B2c3ccccc3N(c3ccccc3)c3cc(N(c4ccccc4)c4ccccc4)cc(c32)N5c2ccccc2)cc1

fluorescence lifetime (in CN(C)C=O): 5.57 ns
Structure (SMILES): C[Si](C)(C)O[Si]1(O[Si](C)(C)C)n2c3c4ccccc4c2/N=C2N=C(/N=c4/c5ccccc5/c(n41)=N/C1=NC(=N\3)/c3ccccc31)c1ccccc1\2

fluorescence lifetime (in ClCCl): 1.23 ns
Structure (SMILES): CCCCCCCCOc1cc(/C=C/c2cc[n+](Cc3ccc(C)cc3)cc2)c(OCCCCCCCC)cc1/C=C/c1cc[n+](Cc2ccc(C)cc2)cc1

fluorescence lifetime (in C1CCCCC1): 4.1 ns
fluorescence lifetime (in CCOC(C)=O): 4.22 ns
fluorescence lifetime (in CO): 4.14 ns
Structure (SMILES): COc1ccc(C2=C3C=c4c(oc5ccccc45)=[N+]3[B-](F)(F)n3c2cc2c4ccccc4oc23)cc1

fluorescence lifetime (in C1CCCCC1): 2.6 ns
fluorescence lifetime (in CCOC(C)=O): 0.72 ns
Structure (SMILES): CC1=[N+]2C(=C(c3ccc(N(c4ccccc4)c4ccccc4)cc3)c3ccc(C)n3[B-]2(F)F)C=C1c1cc2n(c1)[B-](F)(F)[N+]1=CC=CC1=C2c1c(C)cc(C)cc1C

fluorescence lifetime (in ClC(Cl)Cl): 13.7 ns
Structure (SMILES): CCCCCCN1C(=O)c2cccc3cc(/N=C\c4cnc5ccccc5c4)cc(c23)C1=O

fluorescence lifetime (in C1CCCCC1): 2.2 ns
Structure (SMILES): CN(C)c1ccc2nc(-c3ccc(C(=O)OC(C)(C)C)cc3)sc2c1

fluorescence lifetime (in CCCCCC): 3.1 ns
Structure (SMILES): CC(C)(C)c1cc2ccc3cc(C(C)(C)C)cc4c(N(c5ccccc5)c5ccccc5)cc(c1)c2c34

fluorescence lifetime (in CS(C)=O): 0.05 ns
Structure (SMILES): Cn1c(=O)c(/N=N/c2ccc(Nc3ccccc3)c(S(=O)(=O)O)c2)c(O)c2ccccc21

The next lines start with the compound.

Structure (SMILES): COC(=O)CC1(C(=O)OC)Oc2c(c(C(C)=O)c3c(c2C(C)=O)OCO3)O1
fluorescence lifetime (in CC#N): 22.4 ns

Structure (SMILES): COc1c2ccccc2c(OC)c2c1c1c(F)cccc1n2C
fluorescence lifetime (in C1CCCCC1): 23.3 ns
fluorescence lifetime (in CC#N): 25.2 ns
fluorescence lifetime (in CO): 24.4 ns
fluorescence lifetime (in ClCCl): 21.2 ns

Structure (SMILES): N#Cc1ccc(/C=C/c2ccc3ccc4cccc5ccc2c3c45)cc1
fluorescence lifetime (in C1CCOC1): 1.82 ns
fluorescence lifetime (in CC1CCCCC1): 2.05 ns
fluorescence lifetime (in CC#N): 1.68 ns
fluorescence lifetime (in CO): 1.6 ns
fluorescence lifetime (in Cc1ccccc1): 1.76 ns
fluorescence lifetime (in ClC(Cl)Cl): 1.53 ns

Structure (SMILES): CN1CCN(c2ccc3c4c(cccc24)C(=O)c2ccccc2-3)CC1
fluorescence lifetime (in C1CCCCC1): 8.9 ns
fluorescence lifetime (in C1CCOC1): 10 ns
fluorescence lifetime (in C1COCCO1): 10.3 ns
fluorescence lifetime (in CC1COC(=O)O1): 8.04 ns
fluorescence lifetime (in CC#N): 9.53 ns
fluorescence lifetime (in CC(C)=O): 8.45 ns
fluorescence lifetime (in CCCCCCCCO): 5.99 ns
fluorescence lifetime (in CCCCCO): 5.38 ns
fluorescence lifetime (in CCCCO): 5.03 ns
fluorescence lifetime (in CCCO): 4.66 ns
fluorescence lifetime (in CCO): 3.77 ns
fluorescence lifetime (in CCOC(C)=O): 9.8 ns
fluorescence lifetime (in CN(C)C=O): 8.27 ns
fluorescence lifetime (in CO): 2.93 ns
fluorescence lifetime (in CS(C)=O): 8.5 ns
fluorescence lifetime (in Cc1ccccc1): 9.37 ns
fluorescence lifetime (in ClC(Cl)Cl): 10.4 ns

Structure (SMILES): COc1ccc(-c2cc3c(s2)c(C)cc(=O)n3C)cc1
fluorescence lifetime (in ClCCl): 0.63 ns

Structure (SMILES): CN(C)c1ccc(/C=C/c2ccc(-c3nnc(-c4ccc(-c5cc6ccccc6s5)cc4)o3)cc2)cc1
fluorescence lifetime (in Cc1ccccc1): 0.52 ns
fluorescence lifetime (in ClC(Cl)Cl): 0.53 ns

Structure (SMILES): CCOC(=O)/N=c1/oc2cc(OC)ccc2cc1C#N
fluorescence lifetime (in ClCCl): 0.8 ns

Structure (SMILES): CC1(C)OB(c2cc3ccc4cc(B5OC(C)(C)C(C)(C)O5)cc5ccc(c2)c3c45)OC1(C)C
fluorescence lifetime (in Cc1ccccc1): 36 ns

Structure (SMILES): O=C1NC(=O)c2ccc(N3CCOCC3)c3cccc1c23
fluorescence lifetime (in C1CCOC1): 8.38 ns
fluorescence lifetime (in ClC(Cl)Cl): 8.65 ns
fluorescence lifetime (in ClCCl): 8.38 ns

Structure (SMILES): CCOC(=O)c1ccccc1-c1c2ccc(=O)cc-2oc2cc(OC(=O)[C@H](CSCc3ccc(C)cc3)NC(=O)OC(C)(C)C)ccc12
fluorescence lifetime (in C1CCOC1): 2.49 ns
fluorescence lifetime (in CC#N): 2.97 ns
fluorescence lifetime (in CCO): 3.29 ns
fluorescence lifetime (in CS(C)=O): 4.06 ns

Structure (SMILES): O=C(O)c1ccccc1-c1nc(-c2ccccc2)c2ccccn12
fluorescence lifetime (in CC#N): 5.5 ns

Structure (SMILES): Cn1ccc(-c2nc3ccccc3nc2/C=C/N2CCCC2)c1
fluorescence lifetime (in C1CCCCC1): 1.87 ns
fluorescence lifetime (in C1CCOC1): 6.61 ns
fluorescence lifetime (in CC#N): 5.96 ns
fluorescence lifetime (in CC(C)=O): 6.72 ns
fluorescence lifetime (in CCO): 0.39 ns
fluorescence lifetime (in CO): 0.12 ns
fluorescence lifetime (in CS(C)=O): 5.54 ns
fluorescence lifetime (in Cc1ccccc1): 5.1 ns
fluorescence lifetime (in ClCCl): 8.33 ns

Structure (SMILES): Cc1ccc(-[c+]2c3ccccc3sc3ccccc32)cc1
fluorescence lifetime (in CC#N): 1 ns

Structure (SMILES): N#Cc1cccc2[nH]ccc12
fluorescence lifetime (in C1CCOC1): 5.3 ns
fluorescence lifetime (in C1COCCO1): 5.3 ns
fluorescence lifetime (in CC#N): 5.4 ns
fluorescence lifetime (in CC(C)O): 5.7 ns
fluorescence lifetime (in CCO): 5.7 ns
fluorescence lifetime (in CO): 5.8 ns
fluorescence lifetime (in CS(C)=O): 7.4 ns
fluorescence lifetime (in NC=O): 7.8 ns
fluorescence lifetime (in O): 9.1 ns
fluorescence lifetime (in OCC(F)(F)F): 6.3 ns
fluorescence lifetime (in [2H]O[2H]): 9.3 ns

Structure (SMILES): C(#Cc1ccccc1)C(C#Cc1ccccc1)=Cc1cccc(C=C(C#Cc2ccccc2)C#Cc2ccccc2)c1
fluorescence lifetime (in ClC(Cl)Cl): 0.3 ns

Structure (SMILES): CCCCCCCCCCCCN1C(=O)c2c(c3ccc4cc(-c5ccccc5)c(OC)cc4c3c3c2ccc2cc(-c4ccccc4)c(OC)cc23)C1=O
fluorescence lifetime (in ClCCl): 6.16 ns

Structure (SMILES): COc1ccc(C2=Cc3c4ccccc4c4ccccc4[n+]3[B-](F)(F)O2)cc1
fluorescence lifetime (in ClC(Cl)Cl): 1.58 ns

Structure (SMILES): COC(=O)c1cc(=O)n(C)c2cc(-c3ccc4c(c3)OCCO4)sc12
fluorescence lifetime (in ClCCl): 2.15 ns

Structure (SMILES): CC1=CC(C)=[N+]2C1=C(c1ccc(I)cc1)c1c(C)cc(C)n1[B-]21OCCO1
fluorescence lifetime (in ClC(Cl)Cl): 0.93 ns

Structure (SMILES): F[B-]1(F)n2c(c3cccc4cccc2c43)=Nc2ccc3ccccc3[n+]21
fluorescence lifetime (in ClCCl): 6.1 ns

Structure (SMILES): CCc1ccc(-c2nc(-c3ccc(-n4c5ccccc5c5ccccc54)cc3)cc(-c3ccc(-n4c5ccccc5c5ccccc54)cc3)n2)cc1
fluorescence lifetime (in C1CCOC1): 3.72 ns
fluorescence lifetime (in CN(C)C=O): 7.1 ns
fluorescence lifetime (in Cc1ccccc1): 2.05 ns
fluorescence lifetime (in ClC(Cl)Cl): 3.57 ns

Structure (SMILES): COc1cc(C(=O)c2c(C)c3ccc4cccc5c6cccc7ccc2c(c76)c3c45)cc(OC)c1OC
fluorescence lifetime (in ClCCl): 1.35 ns

Structure (SMILES): N#Cc1cnc(-c2c3ccccc3cc3ccccc23)nc1
fluorescence lifetime (in CCO): 1.3 ns
fluorescence lifetime (in ClCCl): 1.6 ns

Structure (SMILES): CC(C)(C)n1c(=O)c2cc3ccc4cccc5ccc(c2c1=O)c3c45
fluorescence lifetime (in ClC(Cl)Cl): 4.09 ns

Structure (SMILES): c1ccc2c(c1)c1ccccc1n2-c1ccc2cc(-c3ccc(-c4ccc(-c5cc6ccc(-n7c8ccccc8c8ccccc87)cc6o5)cc4)cc3)oc2c1
fluorescence lifetime (in Cc1ccccc1): 0.97 ns
fluorescence lifetime (in c1ccc2c(c1)c1ccccc1n2-c1ccc(-c2ccc(-n3c4ccccc4c4ccccc43)cc2)cc1): 1.5 ns

Structure (SMILES): c1ccc([B-]2(c3ccccc3)Oc3ccc4ccccc4c3-c3c4ccccc4cn[n+]32)cc1
fluorescence lifetime (in Cc1ccccc1): 9.32 ns

Structure (SMILES): CCCCCCCCCCCCOc1cc2c3c(ccc4c5c(N6CCOCC6)cc6c7c(ccc(c1c34)c75)C(=O)N(C1CCCCC1)C6=O)C(=O)N(C1CCCCC1)C2=O
fluorescence lifetime (in ClC(Cl)Cl): 3.4 ns

Structure (SMILES): Cc1ccc(/C2=c3\cc/c(o3)=C(\c3ccc(C)cc3)c3ccc([nH]3)-c3ccc4n3[P-](=O)(=O)[N+]3=C(C=CC3=C4c3ccco3)c3ccc2[nH]3)cc1
fluorescence lifetime (in ClC(Cl)Cl): 4.2 ns

Structure (SMILES): COc1cc(OC)c2cc(-c3cccc(-c4cc5c(OC)cc(OC)cc5oc4=O)c3)c(=O)oc2c1
fluorescence lifetime (in ClC(Cl)Cl): 2.6 ns
